Laboratory results taken from patent US9636418B2 (priority 2013, dated 2017).
Read-outs that look alike come from different tables or passages of the source.

Columns and labels:
Assay in all cases: cell-based
[1] = biological target: hNav1.7 (Homo sapiens, UniProt Q15858); format: cell-based; conditions: PatchXpress, read-out: PX hNav1.7 Tonic IC50
[2] = biological target: hNav1.5 (Homo sapiens, UniProt Q14524); conditions: for IC50: PatchXpress, read-out: PX hNav1.5 Tonic IC50
[3] = biological target: hNav1.4 (Homo sapiens, UniProt P35499); conditions: for IC50: PatchXpress, read-out: PX hNav1.4 Tonic IC50
[4] = * = at high concentrations compound would wash off slowly or not at all

hNav1.7, sequence (Q15858 whole entry): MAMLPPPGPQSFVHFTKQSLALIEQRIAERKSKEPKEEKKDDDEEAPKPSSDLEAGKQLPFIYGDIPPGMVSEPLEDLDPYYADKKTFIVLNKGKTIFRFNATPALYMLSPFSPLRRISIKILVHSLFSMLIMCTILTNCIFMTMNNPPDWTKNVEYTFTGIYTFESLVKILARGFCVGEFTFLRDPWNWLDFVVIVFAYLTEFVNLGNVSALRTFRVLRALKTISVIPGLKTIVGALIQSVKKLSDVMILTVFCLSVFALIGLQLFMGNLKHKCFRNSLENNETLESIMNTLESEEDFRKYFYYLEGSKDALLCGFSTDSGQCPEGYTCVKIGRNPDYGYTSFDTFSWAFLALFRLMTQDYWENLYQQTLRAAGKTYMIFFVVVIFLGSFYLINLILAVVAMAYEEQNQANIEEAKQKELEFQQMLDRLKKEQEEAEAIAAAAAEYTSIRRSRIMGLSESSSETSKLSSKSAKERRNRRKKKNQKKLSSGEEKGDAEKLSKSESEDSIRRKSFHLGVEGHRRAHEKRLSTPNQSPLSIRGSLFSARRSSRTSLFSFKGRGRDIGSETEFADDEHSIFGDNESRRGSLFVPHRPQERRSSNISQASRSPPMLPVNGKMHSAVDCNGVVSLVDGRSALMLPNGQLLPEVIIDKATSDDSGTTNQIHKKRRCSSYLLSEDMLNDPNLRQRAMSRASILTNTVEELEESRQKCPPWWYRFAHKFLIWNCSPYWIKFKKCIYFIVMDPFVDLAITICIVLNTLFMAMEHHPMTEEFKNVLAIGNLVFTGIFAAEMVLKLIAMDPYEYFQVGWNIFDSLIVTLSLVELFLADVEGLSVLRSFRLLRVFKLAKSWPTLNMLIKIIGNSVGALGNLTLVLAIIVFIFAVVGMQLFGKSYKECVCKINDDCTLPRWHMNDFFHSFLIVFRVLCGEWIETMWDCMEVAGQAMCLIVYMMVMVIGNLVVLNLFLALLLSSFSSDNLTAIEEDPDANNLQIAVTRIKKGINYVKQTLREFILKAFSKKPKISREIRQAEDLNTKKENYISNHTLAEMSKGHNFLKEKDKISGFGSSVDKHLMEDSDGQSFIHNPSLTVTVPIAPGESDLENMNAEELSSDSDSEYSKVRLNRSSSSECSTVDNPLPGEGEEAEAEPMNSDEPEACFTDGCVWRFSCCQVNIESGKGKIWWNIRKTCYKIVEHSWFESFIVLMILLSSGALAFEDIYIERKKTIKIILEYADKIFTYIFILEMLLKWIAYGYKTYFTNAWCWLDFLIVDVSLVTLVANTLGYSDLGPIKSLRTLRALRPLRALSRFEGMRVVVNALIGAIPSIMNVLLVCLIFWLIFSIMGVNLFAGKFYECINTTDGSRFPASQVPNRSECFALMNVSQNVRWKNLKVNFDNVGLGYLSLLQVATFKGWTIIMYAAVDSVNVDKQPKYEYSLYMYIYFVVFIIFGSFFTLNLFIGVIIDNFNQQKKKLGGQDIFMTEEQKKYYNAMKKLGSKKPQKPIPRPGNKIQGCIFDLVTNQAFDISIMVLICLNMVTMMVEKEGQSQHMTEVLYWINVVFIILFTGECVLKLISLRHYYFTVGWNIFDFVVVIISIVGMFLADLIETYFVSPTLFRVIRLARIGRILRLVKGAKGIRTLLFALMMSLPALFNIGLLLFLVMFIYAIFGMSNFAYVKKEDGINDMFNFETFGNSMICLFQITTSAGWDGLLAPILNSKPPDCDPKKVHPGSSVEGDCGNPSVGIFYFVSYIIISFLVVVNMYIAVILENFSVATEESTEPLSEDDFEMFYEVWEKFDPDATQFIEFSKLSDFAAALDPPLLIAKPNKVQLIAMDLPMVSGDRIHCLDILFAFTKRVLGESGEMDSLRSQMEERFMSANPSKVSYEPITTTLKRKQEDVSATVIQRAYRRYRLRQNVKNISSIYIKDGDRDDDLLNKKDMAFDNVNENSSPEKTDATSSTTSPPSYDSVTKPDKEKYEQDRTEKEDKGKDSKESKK
hNav1.4, sequence (P35499 whole entry): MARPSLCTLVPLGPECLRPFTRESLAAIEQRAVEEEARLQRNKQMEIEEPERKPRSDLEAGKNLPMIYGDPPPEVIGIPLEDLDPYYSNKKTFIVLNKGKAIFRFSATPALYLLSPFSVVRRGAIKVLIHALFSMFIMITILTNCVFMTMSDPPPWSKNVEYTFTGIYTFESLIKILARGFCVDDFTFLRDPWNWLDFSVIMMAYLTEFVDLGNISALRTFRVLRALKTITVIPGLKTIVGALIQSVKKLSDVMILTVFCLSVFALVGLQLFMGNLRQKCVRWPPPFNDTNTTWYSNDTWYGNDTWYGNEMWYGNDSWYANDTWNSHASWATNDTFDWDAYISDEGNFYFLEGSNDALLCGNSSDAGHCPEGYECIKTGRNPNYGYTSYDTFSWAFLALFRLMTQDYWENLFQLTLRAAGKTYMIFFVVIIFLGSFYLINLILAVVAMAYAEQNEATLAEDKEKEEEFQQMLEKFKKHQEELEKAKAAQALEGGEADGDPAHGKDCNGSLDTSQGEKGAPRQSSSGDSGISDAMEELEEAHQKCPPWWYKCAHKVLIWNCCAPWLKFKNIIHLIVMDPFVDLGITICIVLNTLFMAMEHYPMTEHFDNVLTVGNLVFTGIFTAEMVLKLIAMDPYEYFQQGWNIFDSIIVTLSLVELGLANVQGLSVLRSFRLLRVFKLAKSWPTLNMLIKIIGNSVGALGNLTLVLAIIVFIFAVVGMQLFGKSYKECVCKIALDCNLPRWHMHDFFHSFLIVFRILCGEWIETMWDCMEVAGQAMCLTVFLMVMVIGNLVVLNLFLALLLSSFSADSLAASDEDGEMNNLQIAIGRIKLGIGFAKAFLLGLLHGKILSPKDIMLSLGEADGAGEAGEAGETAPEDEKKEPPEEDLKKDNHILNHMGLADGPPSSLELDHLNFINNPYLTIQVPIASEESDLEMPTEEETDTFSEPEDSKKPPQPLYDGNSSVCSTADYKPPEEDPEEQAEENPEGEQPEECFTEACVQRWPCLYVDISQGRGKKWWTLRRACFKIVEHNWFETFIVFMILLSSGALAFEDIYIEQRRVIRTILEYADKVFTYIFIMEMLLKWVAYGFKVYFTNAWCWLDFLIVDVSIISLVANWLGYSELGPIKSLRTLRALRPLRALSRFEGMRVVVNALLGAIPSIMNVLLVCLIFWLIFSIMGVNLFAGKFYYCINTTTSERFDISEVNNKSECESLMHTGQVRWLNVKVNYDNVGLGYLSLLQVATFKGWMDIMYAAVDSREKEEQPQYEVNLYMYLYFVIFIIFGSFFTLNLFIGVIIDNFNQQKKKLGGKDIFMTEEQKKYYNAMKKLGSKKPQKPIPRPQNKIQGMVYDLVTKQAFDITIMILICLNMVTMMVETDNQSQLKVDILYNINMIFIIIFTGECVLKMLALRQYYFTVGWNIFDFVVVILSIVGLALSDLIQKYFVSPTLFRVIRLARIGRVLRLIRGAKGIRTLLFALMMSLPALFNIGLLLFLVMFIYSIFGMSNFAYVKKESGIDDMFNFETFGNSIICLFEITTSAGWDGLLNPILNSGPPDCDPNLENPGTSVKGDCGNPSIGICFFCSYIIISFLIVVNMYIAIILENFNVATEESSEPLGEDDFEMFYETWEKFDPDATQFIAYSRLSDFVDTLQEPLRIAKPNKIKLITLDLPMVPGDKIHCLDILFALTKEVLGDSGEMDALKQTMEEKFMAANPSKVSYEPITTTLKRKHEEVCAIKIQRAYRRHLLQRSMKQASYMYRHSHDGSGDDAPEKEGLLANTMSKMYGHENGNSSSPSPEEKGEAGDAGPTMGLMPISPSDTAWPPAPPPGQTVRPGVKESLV

| Compound | IC50 [1, 4] [nM] | IC50 [2, 4] [nM] | IC50 [3, 4] [nM] | Nav1.4/Nav1.7 ([3]; ratio of PX IC50 values) | IC50 ([1]; tonic block) [nM] | IC50 ([2]; tonic block) [nM] | IC50 ([3]; tonic block) [nM] | Nav1.5/Nav1.7 ([2]; ratio of PX tonic IC50 values) | Nav1.4/Nav1.7 ([3]; ratio of PX tonic IC50 values) |
| --- | --- | --- | --- | --- | --- | --- | --- | --- | --- |
| CCCC[C@@H]1NC(=O)[C@H](Cc2c[nH]c3ccccc23)NC(=O)[C@H](CCCCN)NC(=O)[C@H](CCC(N)=O)NC(=O)[C@@H](NC(=O)[C@H](Cc2ccc(O)cc2)NC(=O)[C@@H](N)Cc2cn(CCOCCOCCOCCOCCOCCOCCOCCOCCOCCOCCOCCNC(=O)CSCc3ccccc3)nn2)CSSC[C@@H]2NC(=O)[C@@H]3CSSC[C@@H](C(=O)N[C@@H](CCCNC(=N)N)C(=O)N[C@@H](CCCCN)C(=O)N[C@H](C(=O)N[C@H](C(N)=O)[C@@H](C)CC)[C@@H](C)CC)NC(=O)[C@H](Cc4c[nH]c5ccccc45)NC(=O)[C@H](CC(C)C)NC(=O)[C@H](CCCCN)NC(=O)[C@H](CSSC[C@H](NC(=O)[C@H]([C@@H](C)O)NC(=O)[C@H](Cc4c[nH]c5ccccc45)NC1=O)C(=O)N[C@@H](CC(=O)O)C(=O)N[C@@H](CO)C(=O)N[C@@H](CCCCN)C(=O)N[C@@H](CCCNC(=N)N)C(=O)N[C@@H](C)C(=O)N3)NC(=O)[C@H](CCCNC(=N)N)NC(=O)[C@H](CC(C)C)NC(=O)CNC(=O)[C@H](CCC(=O)O)NC2=O [compound 427] | 1.4 | 1980 | 13 | 9 |  |  |  |  |  |
| C#CC[C@H](N)C(=O)N[C@@H](Cc1ccc(O)cc1)C(=O)N[C@H]1CSSC[C@@H]2NC(=O)[C@@H]3CSSC[C@@H](C(=O)N[C@@H](CCCNC(=N)N)C(=O)N[C@@H](CCCCN)C(=O)N[C@@H](CCC(=O)O)C(=O)N[C@H](C(N)=O)[C@@H](C)CC)NC(=O)[C@H](Cc4c[nH]c5ccccc45)NC(=O)[C@H](CC(C)C)NC(=O)[C@H](CCCCN)NC(=O)[C@H](CSSC[C@H](NC(=O)[C@H]([C@@H](C)O)NC(=O)[C@H](Cc4c[nH]c5ccccc45)NC(=O)[C@H](CCCC)NC(=O)[C@H](Cc4c[nH]c5ccccc45)NC(=O)[C@H](CCCCN)NC(=O)[C@H](CCC(N)=O)NC1=O)C(=O)N[C@@H](CC(=O)O)C(=O)N[C@@H](CO)C(=O)N[C@@H](CCCCN)C(=O)N[C@@H](CCCNC(=N)N)C(=O)N[C@@H](C)C(=O)N3)NC(=O)[C@H](CCCNC(=N)N)NC(=O)[C@H](CC(C)C)NC(=O)CNC(=O)[C@H](CCC(=O)O)NC2=O [compound 328] |  |  |  |  | 0.515 | 3020 | 130 |  |  |
| C#CC[C@H](N)C(=O)N[C@@H](Cc1ccc(O)cc1)C(=O)N[C@H]1CSSC[C@@H]2NC(=O)[C@@H]3CSSC[C@@H](C(=O)N[C@@H](CCCNC(=N)N)C(=O)N[C@@H](CCCCN)C(=O)N[C@H](C(=O)N[C@@H](Cc4c[nH]c5ccccc45)C(N)=O)[C@@H](C)CC)NC(=O)[C@H](Cc4c[nH]c5ccccc45)NC(=O)[C@H](CC(C)C)NC(=O)[C@H](CCCCN)NC(=O)[C@H](CSSC[C@H](NC(=O)[C@H]([C@@H](C)O)NC(=O)[C@H](Cc4c[nH]c5ccccc45)NC(=O)[C@H](CC(C)C)NC(=O)[C@H](Cc4c[nH]c5ccccc45)NC(=O)[C@H](CCCCN)NC(=O)[C@H](CCC(N)=O)NC1=O)C(=O)N[C@@H](CC(=O)O)C(=O)N[C@@H](CO)C(=O)N[C@@H](CCCCN)C(=O)N[C@@H](CCCNC(=N)N)C(=O)N[C@@H](C)C(=O)N3)NC(=O)[C@H](CCC(=O)O)NC(=O)[C@H](CC(C)C)NC(=O)CNC(=O)[C@H](CCC(=O)O)NC2=O [compound 299] |  |  |  |  | 0.571 | 1330 | 1180 |  |  |
| C#CC[C@@H]1NC(=O)[C@H](CCCNC(=N)N)NC(=O)[C@H](CCCCN)NC(=O)[C@H](CO)NC(=O)[C@H](CC(=O)O)NC(=O)[C@@H]2CSSC[C@@H]3NC(=O)[C@H](CCC(=O)O)NC(=O)[C@H](CC(C)C)NC(=O)CNC(=O)[C@H](CCC(=O)O)NC(=O)[C@H](CSSC[C@H](NC(=O)[C@@H](N)Cc4ccc(O)cc4)C(=O)N[C@@H](CCC(N)=O)C(=O)N[C@@H](CCCCN)C(=O)N[C@@H](Cc4c[nH]c5ccccc45)C(=O)N[C@@H](CCCC)C(=O)N[C@@H](Cc4c[nH]c5ccccc45)C(=O)N[C@@H]([C@@H](C)O)C(=O)N2)NC(=O)[C@H](CSSC[C@@H](C(=O)N[C@@H](CCCNC(=N)N)C(=O)N[C@@H](CCCCN)C(=O)N[C@@H](Cc2ccc(O)cc2)C(=O)N[C@H](C(N)=O)[C@@H](C)CC)NC(=O)[C@H](Cc2c[nH]c4ccccc24)NC(=O)[C@H](CC(C)C)NC(=O)[C@H](CCCCN)NC3=O)NC1=O [compound 316] |  |  |  |  | 1.76 | 3690 | 707 |  |  |
| CCCC[C@@H]1NC(=O)[C@H](Cc2c[nH]c3ccccc23)NC(=O)[C@H](CCCCN)NC(=O)[C@H](CCC(N)=O)NC(=O)[C@@H](NC(=O)[C@@H](N)Cc2ccc(O)cc2)CSSC[C@@H]2NC(=O)[C@@H]3CSSC[C@@H](C(=O)N[C@@H](CCCNC(=N)N)C(=O)N[C@@H](CCCCN)C(=O)N[C@H](C(=O)N[C@@H](Cc4c[nH]c5ccccc45)C(N)=O)[C@@H](C)CC)NC(=O)[C@H](Cc4c[nH]c5ccccc45)NC(=O)[C@H](CC(C)C)NC(=O)[C@H](CCCCN)NC(=O)[C@H](CSSC[C@H](NC(=O)[C@H]([C@@H](C)O)NC(=O)[C@H](Cc4c[nH]c5ccccc45)NC1=O)C(=O)N[C@@H](CC(=O)O)C(=O)N[C@@H](CO)C(=O)N[C@@H](CCCCN)C(=O)N[C@@H](CCCNC(=N)N)C(=O)N[C@@H](C)C(=O)N3)NC(=O)[C@H](CCC(=O)O)NC(=O)[C@H](CC(C)C)NC(=O)CNC(=O)[C@H](CCCCN=[N+]=[N-])NC2=O [compound 307] |  |  |  |  | 9.08 | 750 | 360 | 83 | 40 |
| C#CC[C@H](N)C(=O)N[C@@H](Cc1ccc(O)cc1)C(=O)N[C@H]1CSSC[C@@H]2NC(=O)[C@@H]3CSSC[C@@H](C(=O)N[C@@H](CCCNC(=N)N)C(=O)N[C@@H](CCCCN)C(=O)N[C@H](C(=O)N[C@H](C(N)=O)[C@@H](C)CC)[C@@H](C)CC)NC(=O)[C@H](Cc4c[nH]c5ccccc45)NC(=O)[C@H](CC(C)C)NC(=O)[C@H](CCCCN)NC(=O)[C@H](CSSC[C@H](NC(=O)[C@H]([C@@H](C)O)NC(=O)[C@H](Cc4c[nH]c5ccccc45)NC(=O)[C@H](CCCC)NC(=O)[C@H](Cc4c[nH]c5ccccc45)NC(=O)[C@H](CCCCN)NC(=O)[C@H](CCC(N)=O)NC1=O)C(=O)N[C@@H](CC(=O)O)C(=O)N[C@@H](CO)C(=O)N[C@@H](CCCCN)C(=O)N[C@@H](CCCNC(=N)N)C(=O)N[C@@H](C)C(=O)N3)NC(=O)[C@H](CCC(=O)O)NC(=O)[C@H](CC(C)C)NC(=O)CNC(=O)[C@H](CCC(=O)O)NC2=O [compound 297] |  |  |  |  | 1.87 | 1200 | 804 |  |  |
| CCCC[C@@H]1NC(=O)[C@H](Cc2c[nH]c3ccccc23)NC(=O)[C@H](CCCCN)NC(=O)[C@H](CCC(N)=O)NC(=O)[C@@H](NC(=O)[C@H](Cc2ccc(O)cc2)NC(=O)[C@@H](N)CCCC)CSSC[C@@H]2NC(=O)[C@@H]3CSSC[C@@H](C(=O)N[C@@H](CCCNC(=N)N)C(=O)N[C@@H](CCCCN)C(=O)N[C@H](C(=O)N[C@H](C(N)=O)[C@@H](C)CC)[C@@H](C)CC)NC(=O)[C@H](Cc4c[nH]c5ccccc45)NC(=O)[C@H](CC(C)C)NC(=O)[C@H](CCCCN)NC(=O)[C@H](CSSC[C@H](NC(=O)[C@H]([C@@H](C)O)NC(=O)[C@H](Cc4c[nH]c5ccccc45)NC1=O)C(=O)N[C@@H](CC(=O)O)C(=O)N[C@@H](CO)C(=O)N[C@@H](CCCCN)C(=O)N[C@@H](CCCNC(=N)N)C(=O)N[C@@H](C)C(=O)N3)NC(=O)[C@H](CCCNC(=N)N)NC(=O)[C@H](CC(C)C)NC(=O)CNC(=O)[C@H](CCC(=O)O)NC2=O [compound 370] | 0.223 | 830 | 4.6 | 21 |  |  |  |  |  |
| CC[C@H](C)[C@H](NC(=O)[C@@H](NC(=O)[C@H](CCCCN)NC(=O)[C@H](CCCNC(=N)N)NC(=O)[C@@H]1CSSC[C@@H]2NC(=O)[C@H](C)NC(=O)[C@H](CCCNC(=N)N)NC(=O)[C@H](CCCCN)NC(=O)[C@H](CO)NC(=O)[C@H](CC(=O)O)NC(=O)[C@@H]3CSSC[C@H](NC(=O)[C@H](CCCNC(=N)N)NC(=O)[C@H](CC(C)C)NC(=O)CNC(=O)[C@H](CCC(=O)O)NC(=O)[C@H](CSSC[C@H](NC(=O)[C@@H](N)CCC(=O)O)C(=O)N[C@@H](CCC(N)=O)C(=O)N[C@@H](CCCCN)C(=O)N[C@@H](Cc4c[nH]c5ccccc45)C(=O)N[C@@H](CCSC)C(=O)N[C@@H](Cc4c[nH]c5ccccc45)C(=O)N[C@@H]([C@@H](C)O)C(=O)N3)NC2=O)C(=O)N[C@@H](CCCCN)C(=O)N[C@@H](CC(C)C)C(=O)N[C@@H](Cc2c[nH]c3ccccc23)C(=O)N1)[C@@H](C)CC)C(N)=O [compound 49] | 0.3 | 6440 | 8 | 27 |  |  |  |  |  |
| C#CC[C@H](N)C(=O)N[C@H]1CSSC[C@@H]2NC(=O)[C@@H]3CSSC[C@@H](C(=O)N[C@@H](CCCNC(=N)N)C(=O)N[C@@H](CCCCN)C(=O)N[C@@H](CCC(=O)O)C(=O)N[C@H](C(N)=O)[C@@H](C)CC)NC(=O)[C@H](Cc4c[nH]c5ccccc45)NC(=O)[C@H](CC(C)C)NC(=O)[C@H](CCCCN)NC(=O)[C@H](CSSC[C@H](NC(=O)[C@H]([C@@H](C)O)NC(=O)[C@H](Cc4c[nH]c5ccccc45)NC(=O)[C@H](CCCC)NC(=O)[C@H](Cc4c[nH]c5ccccc45)NC(=O)[C@H](CCCCN)NC(=O)[C@H](CCC(N)=O)NC1=O)C(=O)N[C@@H](CC(=O)O)C(=O)N[C@@H](CO)C(=O)N[C@@H](CCCCN)C(=O)N[C@@H](CCCNC(=N)N)C(=O)N[C@@H](C)C(=O)N3)NC(=O)[C@H](CCCNC(=N)N)NC(=O)[C@H](CC(C)C)NC(=O)CNC(=O)[C@H](CCC(=O)O)NC2=O [compound 329] |  |  |  |  | 0.269 | 4620 | 149 |  |  |
